Measured values from ChEMBL document CHEMBL2439971, “Design, synthesis and antiproliferative evaluation of fluorenone analogs with DNA topoisomerase I inhibitory properties” (Bioorg Med Chem, 2013).
The source made the active and inactive calls. No cut-off for these calls is given here.

How the values were obtained:
U-251 = assay: Cytotoxicity against human U251 cells at 10 uM after 48 hrs by sulforhodamine B assay relative to control; type: functional
SN12C = assay: Cytotoxicity against human SN12C cells at 10 uM after 48 hrs by sulforhodamine B assay relative to control; type: functional
DU-145 = assay: Cytotoxicity against human DU145 cells at 10 uM after 48 hrs by sulforhodamine B assay relative to control; type: functional
A549 = assay: Cytotoxicity against human A549 cells at 10 uM after 48 hrs by sulforhodamine B assay relative to control; type: functional
SF-539 = assay: Cytotoxicity against human SF539 cells at 10 uM after 48 hrs by sulforhodamine B assay relative to control; type: functional
HCT-116 = assay: Cytotoxicity against human HCT116 cells at 10 uM after 48 hrs by sulforhodamine B assay relative to control; type: functional
SK-MEL-5 = assay: Cytotoxicity against human SK-MEL-5 cells at 10 uM after 48 hrs by sulforhodamine B assay relative to control; type: functional
OVCAR-3 = assay: Cytotoxicity against human OVCAR3 cells at 10 uM after 48 hrs by sulforhodamine B assay relative to control; type: functional
OVCAR-5 = assay: Cytotoxicity against human OVCAR5 cells at 10 uM after 48 hrs by sulforhodamine B assay relative to control; type: functional
UACC-257 = assay: Cytotoxicity against human UACC257 cells at 10 uM after 48 hrs by sulforhodamine B assay relative to control; type: functional
RPMI-8226 = assay: Cytotoxicity against human RPMI8226 cells at 10 uM after 48 hrs by sulforhodamine B assay relative to control; type: functional
OVCAR-4 = assay: Cytotoxicity against human OVCAR4 cells at 10 uM after 48 hrs by sulforhodamine B assay relative to control; type: functional
NCI-H226 = assay: Cytotoxicity against human NCI-H226 cells at 10 uM after 48 hrs by sulforhodamine B assay relative to control; type: functional
786-0 = assay: Cytotoxicity against human 786-0 cells at 10 uM after 48 hrs by sulforhodamine B assay relative to control; type: functional
LOX IMVI = assay: Cytotoxicity against human LOXIMVI cells at 10 uM after 48 hrs by sulforhodamine B assay relative to control; type: functional
UO-31 = assay: Cytotoxicity against human UO31 cells at 10 uM after 48 hrs by sulforhodamine B assay relative to control; type: functional
T47D = assay: Cytotoxicity against human T47D cells at 10 uM after 48 hrs by sulforhodamine B assay relative to control; type: functional
Homo sapiens = species: Homo sapiens; assay: Inhibition of telomerase (unknown origin) at 10 uM TRAP assay
HOP-92 = assay: Cytotoxicity against human HOP92 cells at 10 uM after 48 hrs by sulforhodamine B assay relative to control; type: functional
HOP-62 = assay: Cytotoxicity against human HOP62 cells at 10 uM after 48 hrs by sulforhodamine B assay relative to control; type: functional
CAKI-1 = assay: Cytotoxicity against human CAKI-1 cells at 10 uM after 48 hrs by sulforhodamine B assay relative to control; type: functional
Malme-3M = assay: Cytotoxicity against human MALME-3M cells at 10 uM after 48 hrs by sulforhodamine B assay relative to control; type: functional
IGROV-1 = assay: Cytotoxicity against human IGROV1 cells at 10 uM after 48 hrs by sulforhodamine B assay relative to control; type: functional
M14 = assay: Cytotoxicity against human M14 cells at 10 uM after 48 hrs by sulforhodamine B assay relative to control; type: functional
PC-3 [1] = assay: Cytotoxicity against human PC3 cells at 10 uM after 48 hrs by sulforhodamine B assay relative to control; type: functional
OVCAR-8 = assay: Cytotoxicity against human OVCAR8 cells at 10 uM after 48 hrs by sulforhodamine B assay relative to control; type: functional
KM12 = assay: Cytotoxicity against human KM12 cells at 10 uM after 48 hrs by sulforhodamine B assay relative to control; type: functional
SK-MEL-2 = assay: Cytotoxicity against human SK-MEL-2 cells at 10 uM after 48 hrs by sulforhodamine B assay relative to control; type: functional
HT-29 = assay: Cytotoxicity against human HT-29 cells at 10 uM after 48 hrs by sulforhodamine B assay relative to control; type: functional
K562 = assay: Cytotoxicity against human K562 cells at 10 uM after 48 hrs by sulforhodamine B assay relative to control; type: functional
MOLT-4 = assay: Cytotoxicity against human MOLT4 cells at 10 uM after 48 hrs by sulforhodamine B assay relative to control; type: functional
MCF7 = assay: Cytotoxicity against human MCF7 cells at 10 uM after 48 hrs by sulforhodamine B assay relative to control; type: functional
SNB-75 = assay: Cytotoxicity against human SNB75 cells at 10 uM after 48 hrs by sulforhodamine B assay relative to control; type: functional
HL-60(TB) = assay: Cytotoxicity against human HL-60(TB) cells at 10 uM after 48 hrs by sulforhodamine B assay relative to control; type: functional
TK-10 = assay: Cytotoxicity against human TK10 cells at 10 uM after 48 hrs by sulforhodamine B assay relative to control; type: functional
CCRF-CEM = assay: Cytotoxicity against human CCRF-CEM cells at 10 uM after 48 hrs by sulforhodamine B assay relative to control; type: functional
SW-620 = assay: Cytotoxicity against human SW620 cells at 10 uM after 48 hrs by sulforhodamine B assay relative to control; type: functional
HCT-15 = assay: Cytotoxicity against human HCT15 cells at 10 uM after 48 hrs by sulforhodamine B assay relative to control; type: functional
COLO 205 = assay: Cytotoxicity against human COLO205 cells at 10 uM after 48 hrs by sulforhodamine B assay relative to control; type: functional
UACC-62 = assay: Cytotoxicity against human UACC62 cells at 10 uM after 48 hrs by sulforhodamine B assay relative to control; type: functional
NCI/ADR-RES = assay: Cytotoxicity against human NCI/ADR-RES cells at 10 uM after 48 hrs by sulforhodamine B assay relative to control; type: functional
SF-295 = assay: Cytotoxicity against human SF295 cells at 10 uM after 48 hrs by sulforhodamine B assay relative to control; type: functional
NCI-H460 = assay: Cytotoxicity against human NCI-H460 cells at 10 uM after 48 hrs by sulforhodamine B assay relative to control; type: functional
HCC 2998 = assay: Cytotoxicity against human HCC2998 cells at 10 uM after 48 hrs by sulforhodamine B assay relative to control; type: functional
MDA-MB-231 = assay: Cytotoxicity against human MDA-MB-231 cells at 10 uM after 48 hrs by sulforhodamine B assay relative to control; type: functional
RXF 393 = assay: Cytotoxicity against human RXF393 cells at 10 uM after 48 hrs by sulforhodamine B assay relative to control; type: functional
SNB-19 = assay: Cytotoxicity against human SNB19 cells at 10 uM after 48 hrs by sulforhodamine B assay relative to control; type: functional
MDA-MB-435 = assay: Cytotoxicity against human MDA-MB-435 cells at 10 uM after 48 hrs by sulforhodamine B assay relative to control; type: functional
NCI-H23 = assay: Cytotoxicity against human NCI-H23 cells at 10 uM after 48 hrs by sulforhodamine B assay relative to control; type: functional
MDA-MB-468 = assay: Cytotoxicity against human MDA-MB-468 cells at 10 uM after 48 hrs by sulforhodamine B assay relative to control; type: functional
SK-MEL-28 = assay: Cytotoxicity against human SK-MEL-28 cells at 10 uM after 48 hrs by sulforhodamine B assay relative to control; type: functional
NCI-H522 = assay: Cytotoxicity against human NCI-H522 cells at 10 uM after 48 hrs by sulforhodamine B assay relative to control; type: functional
[2] = Cytotoxicity against human Hs 578T cells at 10 uM after 48 hrs by sulforhodamine B assay relative to control; type: functional
SR = assay: Cytotoxicity against human SR cells at 10 uM after 48 hrs by sulforhodamine B assay relative to control; type: functional
BT-549 = assay: Cytotoxicity against human BT549 cells at 10 uM after 48 hrs by sulforhodamine B assay relative to control; type: functional
SF-268 = assay: Cytotoxicity against human SF268 cells at 10 uM after 48 hrs by sulforhodamine B assay relative to control; type: functional
NCI-H322M = assay: Cytotoxicity against human NCI-H322M cells at 10 uM after 48 hrs by sulforhodamine B assay relative to control; type: functional
PC-3 [3] = assay: Cytotoxicity against human PC3 cells after 48 hrs by sulforhodamine B assay; type: functional, cell-based; details: PC-3, 48 h
ACHN = assay: Cytotoxicity against human ACHN cells at 10 uM after 48 hrs by sulforhodamine B assay relative to control; type: functional
[4] = Cytotoxicity against human EKVX cells at 10 uM after 48 hrs by sulforhodamine B assay relative to control; type: functional

## CN1CCN(CC(=O)Nc2ccc3c(c2)C(=O)c2cc(NC(=O)CN4CCN(C)CC4)ccc2-3)CC1
U-251
  Activity: 97.19%
SN12C
  Activity: 100.48%
DU-145
  Activity: 117.23%
A549
  Activity: 106.99%
SF-539
  Activity: 107.96%
HCT-116
  Activity: 94.2%
SK-MEL-5
  Activity: 103.25%
OVCAR-3
  Activity: 125.59%
OVCAR-5
  Activity: 119.06%
UACC-257
  Activity: 133.36%
RPMI-8226
  Activity: 106.31%
OVCAR-4
  Activity: 111.66%
NCI-H226
  Activity: 106.03%
786-0
  Activity: 102.26%
LOX IMVI
  Activity: 96.76%
UO-31
  Activity: 89.84%
T47D
  Activity: 103.63%
Homo sapiens
  inhibition: inactive
HOP-92
  Activity: 93.88%
HOP-62
  Activity: 111.05%
CAKI-1
  Activity: 92.75%
Malme-3M
  Activity: 115.66%
IGROV-1
  Activity: 110.15%
M14
  Activity: 106.48%
PC-3 [1]
  Activity: 101.32%
OVCAR-8
  Activity: 111.5%
KM12
  Activity: 108.52%
SK-MEL-2
  Activity: 119.93%
HT-29
  Activity: 95.51%
K562
  Activity: 104.58%
MOLT-4
  Activity: 96.58%
MCF7
  Activity: 95.17%
SNB-75
  Activity: 87.76%
HL-60(TB)
  Activity: 100.43%
TK-10
  Activity: 106.54%
CCRF-CEM
  Activity: 98.38%
SW-620
  Activity: 103.43%
HCT-15
  Activity: 106.48%
COLO 205
  Activity: 102.69%
UACC-62
  Activity: 110.11%
NCI/ADR-RES
  Activity: 102.76%
SF-295
  Activity: 93.37%
NCI-H460
  Activity: 108.46%
HCC 2998
  Activity: 98.62%
MDA-MB-231
  Activity: 108.13%
RXF 393
  Activity: 110.09%
SNB-19
  Activity: 101.36%
MDA-MB-435
  Activity: 95.92%
NCI-H23
  Activity: 99.17%
MDA-MB-468
  Activity: 98.39%
SK-MEL-28
  Activity: 97.75%
NCI-H522
  Activity: 90.02%
[2]
  Activity: 107.34%
SR
  Activity: 105.62%
BT-549
  Activity: 110.6%
SF-268
  Activity: 115.79%
NCI-H322M
  Activity: 97.25%
PC-3 [3]
  IC50: > 30 µM
ACHN
  Activity: 111.9%
[4]
  Activity: 100.31%

## CCCNCC(=O)Nc1ccc2c(c1)C(=O)c1cc(NC(=O)CNCCC)ccc1-2
U-251
  Activity: 49.16%
SN12C
  Activity: 79.58%
DU-145
  Activity: 68.94%
A549
  Activity: 44.21%
SF-539
  Activity: 86.19%
HCT-116
  Activity: 34.22%
SK-MEL-5
  Activity: 93.78%
OVCAR-3
  Activity: 101.73%
OVCAR-5
  Activity: 115.75%
UACC-257
  Activity: 113.51%
RPMI-8226
  Activity: 62.56%
OVCAR-4
  Activity: 65.9%
NCI-H226
  Activity: 104.17%
786-0
  Activity: 82.05%
LOX IMVI
  Activity: 63.5%
UO-31
  Activity: 59.44%
T47D
  Activity: 100.55%
Homo sapiens
  inhibition: inactive
HOP-62
  Activity: 70.78%
CAKI-1
  Activity: 84.88%
Malme-3M
  Activity: 111.89%
IGROV-1
  Activity: 67.45%
M14
  Activity: 84.8%
PC-3 [1]
  Activity: 63.47%
OVCAR-8
  Activity: 54.46%
KM12
  Activity: 65.12%
SK-MEL-2
  Activity: 114.94%
HT-29
  Activity: 7.11%
K562
  Activity: 1.15%
MOLT-4
  Activity: 41.29%
MCF7
  Activity: 42.23%
SNB-75
  Activity: 90.2%
HL-60(TB)
  Activity: 78.59%
TK-10
  Activity: 101.22%
CCRF-CEM
  Activity: 43.54%
SW-620
  Activity: 33.33%
HCT-15
  Activity: 82.71%
COLO 205
  Activity: 53.11%
UACC-62
  Activity: 108.2%
NCI/ADR-RES
  Activity: 90.61%
SF-295
  Activity: 78.31%
NCI-H460
  Activity: 47.28%
HCC 2998
  Activity: 75.34%
MDA-MB-231
  Activity: 53.48%
RXF 393
  Activity: 64.2%
SNB-19
  Activity: 96.69%
MDA-MB-435
  Activity: 74.91%
NCI-H23
  Activity: 81.96%
MDA-MB-468
  Activity: 60.47%
SK-MEL-28
  Activity: 91.46%
NCI-H522
  Activity: 63.92%
[2]
  Activity: 109.04%
SR
  Activity: 26.93%
BT-549
  Activity: 97.53%
SF-268
  Activity: 81.33%
NCI-H322M
  Activity: 55.32%
PC-3 [3]
  IC50: 5.46 µM
ACHN
  Activity: 72.93%
[4]
  Activity: 88.56%
